Experimental data reported in patent publication US5534508A, “Cephem compounds and antimicrobial agents” (Katayama Seiyakusyo Co., Ltd., priority 1993, dated 1996).
≈ marks a conversion by molar mass, not a printed value.

Legend:
Format in all cases: cell-based
E. cloacae ATCC 13407 = test: MIC against standard strains (Table 1), E. cloacae ATCC 13407; details: Enterobacter cloacae, ATCC13407, Muller-Hinton agar, overnight 37° C., read-out: MIC (minimum growth inhibitory concentration)
Experimental: (§1) The minimum growth inhibitory concentration (MIC, μg/ml) of the compounds for each of the 25 standard laboratory strains (standard strains) shown in Table 1 was determined in accordance with the standard method of the Japan Chemotherapical Society (Chemotherapy, 29, 76-79 (1981) under "Re-revision of the measuring methods of minimum growth inhibitory concentration (MIC)").
(§2) That is, by using each test strain cultured overnight at 37° C. in a Muller-Hinton broth, there was prepared a bacterial solution with a cell density of 1×10^6 CFU/ml in the same broth. The bacterial solution was inoculated into the Muller-Hinton agar media each containing respectively one test agent (i.e., compound) and, after overnight incubation at 37° C., the minimum concentration that inhibited growth of the bacteria was determined and expressed as MIC.
(§3) Staphylococcus aureus 167 and Staphylococcus aureus 195 used in the test were MRSA. CTM (cefotiam) and FMOX (flomoxef) were used as the control agents.

A. faecalis ATCC 3750 = test: MIC against standard strains (Table 1), A. faecalis ATCC 3750; details: Alcaligenes faecalis, ATCC3750, Muller-Hinton agar, overnight 37° C., read-out: MIC (minimum growth inhibitory concentration)
Experimental: as §1, §2, §3

S. aureus Smith = test: MIC against standard strains (Table 1), S. aureus Smith; details: Staphylococcus aureus, Muller-Hinton agar, overnight 37° C., read-out: MIC (minimum growth inhibitory concentration)
Experimental: as §1, §2, §3

S. aureus 209p JC-1 = test: MIC against standard strains (Table 1), S. aureus 209p JC-1; details: Staphylococcus aureus, Muller-Hinton agar, overnight 37° C., read-out: MIC (minimum growth inhibitory concentration)
Experimental: as §1, §2, §3

P. cepacia CN 9113 = test: MIC against standard strains (Table 1), P. cepacia CN 9113; details: Burkholderia cepacia, CN9113, Muller-Hinton agar, overnight 37° C., read-out: MIC (minimum growth inhibitory concentration)
Experimental: as §1, §2, §3

M. luteus ATCC 9341 = test: MIC against standard strains (Table 1), M. luteus ATCC 9341; details: Micrococcus luteus, ATCC9341, Muller-Hinton agar, overnight 37° C., read-out: MIC (minimum growth inhibitory concentration)
Experimental: as §1, §2, §3

S. marcescens No. 16-2 = test: MIC against standard strains (Table 1), S. marcescens No. 16-2; details: Serratia marcescens, NO.162, Muller-Hinton agar, overnight 37° C., read-out: MIC (minimum growth inhibitory concentration)
Experimental: as §1, §2, §3

A. calcoaceticos T59 = test: MIC against standard strains (Table 1), A. calcoaceticos T59; details: Muller-Hinton agar, overnight 37° C., read-out: MIC (minimum growth inhibitory concentration)
Experimental: as §1, §2, §3

clinically isolated MRSA = test: Antibacterial potency against clinically isolated MRSA (47 strains); details: Staphylococcus aureus; for MIC50: concentration inhibiting growth of 50% of 47 clinically isolated MRSA strains; for MIC90: concentration inhibiting growth of 90% of 47 clinically isolated MRSA strains
Experimental: A test on the antibacterial potency against clinically isolated MRSA was conducted in the following way.
That is, using 47 strains of clinically isolated MRSA, MIC was determined for each of the test strains in accordance with the standard method of the Japan Chemotherapical Society as in Test Example 1, and the minimum growth inhibitory concentration which inhibited growth of 50% of the strains tested was expressed as MIC50 (μg/ml), and the minimum growth inhibitory concentration which inhibited growth of 90% of the strains tested was expressed as MIC90 (μg/ml).
In this test, FMOX was used as the control agent.

K. pneuminiae IFO 3317 = test: MIC against standard strains (Table 1), K. pneuminiae IFO 3317; details: Muller-Hinton agar, overnight 37° C., read-out: MIC (minimum growth inhibitory concentration)
Experimental: as §1, §2, §3

C. freundii ATCC 8090 = test: MIC against standard strains (Table 1), C. freundii ATCC 8090; details: Citrobacter freundii, ATCC8090, Muller-Hinton agar, overnight 37° C., read-out: MIC (minimum growth inhibitory concentration)
Experimental: as §1, §2, §3

M. morganii IFO 3848 = test: MIC against standard strains (Table 1), M. morganii IFO 3848; details: Morganella morganii, IFO3848, Muller-Hinton agar, overnight 37° C., read-out: MIC (minimum growth inhibitory concentration)
Experimental: as §1, §2, §3

E. cloacae Nek39 = test: MIC against standard strains (Table 1), E. cloacae Nek39; details: Enterobacter cloacae, Muller-Hinton agar, overnight 37° C., read-out: MIC (minimum growth inhibitory concentration)
Experimental: as §1, §2, §3

E. coli CSH2(RK1) = test: MIC against standard strains (Table 1), E. coli CSH2(RK1); details: Escherichia coli, read-out: MIC (minimum growth inhibitory concentration)
Experimental: as §1, §2, §3

S. epidemidis IAM 1296 = test: MIC against standard strains (Table 1), S. epidemidis IAM 1296; details: Muller-Hinton agar, overnight 37° C., read-out: MIC (minimum growth inhibitory concentration)
Experimental: as §1, §2, §3

E. coli JC-2 = test: MIC against standard strains (Table 1), E. coli JC-2; details: Escherichia coli, JC2, Muller-Hinton agar, overnight 37° C., read-out: MIC (minimum growth inhibitory concentration)
Experimental: as §1, §2, §3

P. aeruginosa AKR17 = test: MIC against standard strains (Table 1), P. aeruginosa AKR17; details: Pseudomonas aeruginosa, Muller-Hinton agar, overnight 37° C., read-out: MIC (minimum growth inhibitory concentration)
Experimental: as §1, §2, §3

P. mirabilis IFO 3849 = test: MIC against standard strains (Table 1), P. mirabilis IFO 3849; details: Proteus mirabilis, IFO3849, Muller-Hinton agar, overnight 37° C., read-out: MIC (minimum growth inhibitory concentration)
Experimental: as §1, §2, §3

P. aeruginosa NCTC 10490 = test: MIC against standard strains (Table 1), P. aeruginosa NCTC 10490; details: Pseudomonas aeruginosa, NCTC10490, Muller-Hinton agar, overnight 37° C., read-out: MIC (minimum growth inhibitory concentration)
Experimental: as §1, §2, §3

S. aureus 167 = test: MIC against standard strains (Table 1), S. aureus 167 (MRSA); details: Staphylococcus aureus, Muller-Hinton agar, overnight 37° C., read-out: MIC (minimum growth inhibitory concentration)
Experimental: as §1, §2, §3

S. marcescens IAM 1184 = test: MIC against standard strains (Table 1), S. marcescens IAM 1184; details: Serratia marcescens, IAM1184, Muller-Hinton agar, overnight 37° C., read-out: MIC (minimum growth inhibitory concentration)
Experimental: as §1, §2, §3

K. pneuminiae No. 42 = test: MIC against standard strains (Table 1), K. pneuminiae No. 42; details: Muller-Hinton agar, overnight 37° C., read-out: MIC (minimum growth inhibitory concentration)
Experimental: as §1, §2, §3

B. subtilis ATCC 6633 = test: MIC against standard strains (Table 1), B. subtilis ATCC 6633; details: Bacillus subtilis, ATCC6633, Muller-Hinton agar, overnight 37° C., read-out: MIC (minimum growth inhibitory concentration)
Experimental: as §1, §2, §3

S. aureus 195 = test: MIC against standard strains (Table 1), S. aureus 195 (MRSA); details: Staphylococcus aureus, Muller-Hinton agar, overnight 37° C., read-out: MIC (minimum growth inhibitory concentration)
Experimental: as §1, §2, §3

P. vulugaris OX-19 = test: MIC against standard strains (Table 1), P. vulugaris OX-19; details: Muller-Hinton agar, overnight 37° C., read-out: MIC (minimum growth inhibitory concentration)
Experimental: as §1, §2, §3

E. coli CSH2(RE45) = test: MIC against standard strains (Table 1), E. coli CSH2(RE45); details: Escherichia coli, read-out: MIC (minimum growth inhibitory concentration)
Experimental: as §1, §2, §3

Row | Structure (SMILES) | MIC (E. cloacae ATCC 13407) | MIC (A. faecalis ATCC 3750) | MIC (S. aureus Smith) | MIC (S. aureus 209p JC-1) | MIC (P. cepacia CN 9113) | MIC (M. luteus ATCC 9341) | MIC (S. marcescens No. 16-2) | MIC (A. calcoaceticos T59) | MIC50 (clinically isolated MRSA) | MIC90 (clinically isolated MRSA) | MIC (K. pneuminiae IFO 3317) | MIC (C. freundii ATCC 8090) | MIC (M. morganii IFO 3848) | MIC (E. cloacae Nek39) | MIC (E. coli CSH2(RK1)) | MIC (S. epidemidis IAM 1296) | MIC (E. coli JC-2) | MIC (P. aeruginosa AKR17) | MIC (P. mirabilis IFO 3849) | MIC (P. aeruginosa NCTC 10490) | also measured
1 | NC(=O)Nc1ccc[n+](C/C=C/C2=C(C(=O)[O-])N3C(=O)[C@@H](NC(=O)/C(=N\O)c4csc(N)n4)[C@H]3SC2)c1 [Compound 13, 7β-[2-(2-aminothiazol-4-yl)-2-syn-hydroxyiminoacetamido]-3-[(E)-3-(3-ureidopyridinio) -1-propenyl]-3-cephem-4-carboxylate] | 0.1 µg/mL (≈ 0.184 µM) | 0.78 µg/mL (≈ 1.43 µM) | 0.2 µg/mL (≈ 0.367 µM) | 0.1 µg/mL (≈ 0.184 µM) | > 100 µg/mL | 0.05 µg/mL (≈ 0.0918 µM) | 6.25 µg/mL (≈ 11.5 µM) | 3.13 µg/mL (≈ 5.75 µM) | 0.83 µg/mL (≈ 1.52 µM) | 5.08 µg/mL (≈ 9.33 µM) | 0.025 µg/mL (≈ 0.0459 µM) | 0.025 µg/mL (≈ 0.0459 µM) | 0.025 µg/mL (≈ 0.0459 µM) | 6.25 µg/mL (≈ 11.5 µM) | 0.05 µg/mL (≈ 0.0918 µM) | 0.025 µg/mL (≈ 0.0459 µM) | 0.025 µg/mL (≈ 0.0459 µM) | > 100 µg/mL | 0.05 µg/mL (≈ 0.0918 µM) | 1.56 µg/mL (≈ 2.86 µM) | MIC (S. aureus 167): 12.5 µg/mL (≈ 23 µM); MIC (S. marcescens IAM 1184): 0.05 µg/mL (≈ 0.0918 µM); MIC (K. pneuminiae No. 42): 0.05 µg/mL (≈ 0.0918 µM); MIC (B. subtilis ATCC 6633): 0.2 µg/mL (≈ 0.367 µM); MIC (S. aureus 195): 1.56 µg/mL (≈ 2.86 µM); MIC (P. vulugaris OX-19): 0.05 µg/mL (≈ 0.0918 µM); MIC (E. coli CSH2(RE45)): 0.05 µg/mL (≈ 0.0918 µM)
2 | NC(=O)c1ccc[n+](C/C=C/C2=C(C(=O)[O-])N3C(=O)[C@@H](NC(=O)/C(=N\O)c4csc(N)n4)[C@H]3SC2)c1 [Compound 18, 7β-[2-(2-aminothiazol-4-yl)-2-syn-hydroxyiminoacetamido]-3-[(E)-3-(3-carbamoylpyridinio)-1-propenyl]-3-cephem-4-carboxylate] | 0.1 µg/mL (≈ 0.189 µM) | 0.78 µg/mL (≈ 1.47 µM) | 0.1 µg/mL (≈ 0.189 µM) | 0.1 µg/mL (≈ 0.189 µM) | > 100 µg/mL | 0.05 µg/mL (≈ 0.0944 µM) | 12.5 µg/mL (≈ 23.6 µM) | 3.13 µg/mL (≈ 5.91 µM) | 2.63 µg/mL (≈ 4.97 µM) | 22.2 µg/mL (≈ 41.9 µM) | 0.05 µg/mL (≈ 0.0944 µM) | 0.05 µg/mL (≈ 0.0944 µM) | 0.05 µg/mL (≈ 0.0944 µM) | 6.25 µg/mL (≈ 11.8 µM) | 0.1 µg/mL (≈ 0.189 µM) | 0.05 µg/mL (≈ 0.0944 µM) | 0.05 µg/mL (≈ 0.0944 µM) | > 100 µg/mL | 0.1 µg/mL (≈ 0.189 µM) | 1.56 µg/mL (≈ 2.95 µM) | MIC (S. aureus 167): 50 µg/mL (≈ 94.4 µM); MIC (S. marcescens IAM 1184): 0.05 µg/mL (≈ 0.0944 µM); MIC (K. pneuminiae No. 42): 0.1 µg/mL (≈ 0.189 µM); MIC (B. subtilis ATCC 6633): 0.1 µg/mL (≈ 0.189 µM); MIC (S. aureus 195): 3.13 µg/mL (≈ 5.91 µM); MIC (P. vulugaris OX-19): 0.1 µg/mL (≈ 0.189 µM); MIC (E. coli CSH2(RE45)): 0.05 µg/mL (≈ 0.0944 µM)
3 | NC(=O)c1cc[n+](C/C=C/C2=C(C(=O)[O-])N3C(=O)[C@@H](NC(=O)/C(=N\O)c4csc(N)n4)[C@H]3SC2)cc1 [Compound 19, 7β-[2-(2-aminothiazol-4-yl)-2-syn-hydroxyiminoacetamido]-3-[(E)-3-(4-carbamoylpyridinio)-1-propenyl]-3-cephem-4-carboxylate] | 0.39 µg/mL (≈ 0.736 µM) | 1.56 µg/mL (≈ 2.95 µM) | 0.2 µg/mL (≈ 0.378 µM) | 0.1 µg/mL (≈ 0.189 µM) | > 100 µg/mL | 0.05 µg/mL (≈ 0.0944 µM) | 12.5 µg/mL (≈ 23.6 µM) | 3.13 µg/mL (≈ 5.91 µM) | 2.92 µg/mL (≈ 5.51 µM) | 17.4 µg/mL (≈ 32.8 µM) | 0.05 µg/mL (≈ 0.0944 µM) | 0.05 µg/mL (≈ 0.0944 µM) | 0.05 µg/mL (≈ 0.0944 µM) | 12.5 µg/mL (≈ 23.6 µM) | 0.2 µg/mL (≈ 0.378 µM) | 0.05 µg/mL (≈ 0.0944 µM) | 0.1 µg/mL (≈ 0.189 µM) | > 100 µg/mL | 0.2 µg/mL (≈ 0.378 µM) | 1.56 µg/mL (≈ 2.95 µM) | MIC (S. aureus 167): 100 µg/mL (≈ 189 µM); MIC (S. marcescens IAM 1184): 0.1 µg/mL (≈ 0.189 µM); MIC (K. pneuminiae No. 42): 0.1 µg/mL (≈ 0.189 µM); MIC (B. subtilis ATCC 6633): 0.2 µg/mL (≈ 0.378 µM); MIC (S. aureus 195): 3.13 µg/mL (≈ 5.91 µM); MIC (P. vulugaris OX-19): 0.1 µg/mL (≈ 0.189 µM); MIC (E. coli CSH2(RE45)): 0.1 µg/mL (≈ 0.189 µM)
